Literature values as cited in patent US12296049B2, “Immediate release dosage form” (Kenvue Brands LLC, priority 2019, dated 2025).

Settings: at lower acidic pH it precipitates

COc1ccc2cc([C@H](C)C(=O)O)ccc2c1 [naproxen sodium]
pH at which the drug stays in solution: above 5.4
